The structures appear in SMILES notation.

Results on two compounds are retold here after ChEMBL document CHEMBL2074486, “Identification of basic residues involved in drug export function of human multidrug resistance-associated protein 2” (J Biol Chem, 2000).

Series [1] addresses T1, ATP-binding cassette sub-family C member 2 (Homo sapiens, UniProt Q92887). Kind of series: TP_TRANSPORTER: excretion in MRP2-expressing CHO cells. The class given is functional, cell-based. To be noted: hamster.
In series [2] the target is T1, ATP-binding cassette sub-family C member 2. Kind of series: TP_TRANSPORTER: excretion in MRP2-expressing COS-7 cells. The format is functional, cell-based. The note with it: monkey.

T1 sequence (Q92887 whole entry): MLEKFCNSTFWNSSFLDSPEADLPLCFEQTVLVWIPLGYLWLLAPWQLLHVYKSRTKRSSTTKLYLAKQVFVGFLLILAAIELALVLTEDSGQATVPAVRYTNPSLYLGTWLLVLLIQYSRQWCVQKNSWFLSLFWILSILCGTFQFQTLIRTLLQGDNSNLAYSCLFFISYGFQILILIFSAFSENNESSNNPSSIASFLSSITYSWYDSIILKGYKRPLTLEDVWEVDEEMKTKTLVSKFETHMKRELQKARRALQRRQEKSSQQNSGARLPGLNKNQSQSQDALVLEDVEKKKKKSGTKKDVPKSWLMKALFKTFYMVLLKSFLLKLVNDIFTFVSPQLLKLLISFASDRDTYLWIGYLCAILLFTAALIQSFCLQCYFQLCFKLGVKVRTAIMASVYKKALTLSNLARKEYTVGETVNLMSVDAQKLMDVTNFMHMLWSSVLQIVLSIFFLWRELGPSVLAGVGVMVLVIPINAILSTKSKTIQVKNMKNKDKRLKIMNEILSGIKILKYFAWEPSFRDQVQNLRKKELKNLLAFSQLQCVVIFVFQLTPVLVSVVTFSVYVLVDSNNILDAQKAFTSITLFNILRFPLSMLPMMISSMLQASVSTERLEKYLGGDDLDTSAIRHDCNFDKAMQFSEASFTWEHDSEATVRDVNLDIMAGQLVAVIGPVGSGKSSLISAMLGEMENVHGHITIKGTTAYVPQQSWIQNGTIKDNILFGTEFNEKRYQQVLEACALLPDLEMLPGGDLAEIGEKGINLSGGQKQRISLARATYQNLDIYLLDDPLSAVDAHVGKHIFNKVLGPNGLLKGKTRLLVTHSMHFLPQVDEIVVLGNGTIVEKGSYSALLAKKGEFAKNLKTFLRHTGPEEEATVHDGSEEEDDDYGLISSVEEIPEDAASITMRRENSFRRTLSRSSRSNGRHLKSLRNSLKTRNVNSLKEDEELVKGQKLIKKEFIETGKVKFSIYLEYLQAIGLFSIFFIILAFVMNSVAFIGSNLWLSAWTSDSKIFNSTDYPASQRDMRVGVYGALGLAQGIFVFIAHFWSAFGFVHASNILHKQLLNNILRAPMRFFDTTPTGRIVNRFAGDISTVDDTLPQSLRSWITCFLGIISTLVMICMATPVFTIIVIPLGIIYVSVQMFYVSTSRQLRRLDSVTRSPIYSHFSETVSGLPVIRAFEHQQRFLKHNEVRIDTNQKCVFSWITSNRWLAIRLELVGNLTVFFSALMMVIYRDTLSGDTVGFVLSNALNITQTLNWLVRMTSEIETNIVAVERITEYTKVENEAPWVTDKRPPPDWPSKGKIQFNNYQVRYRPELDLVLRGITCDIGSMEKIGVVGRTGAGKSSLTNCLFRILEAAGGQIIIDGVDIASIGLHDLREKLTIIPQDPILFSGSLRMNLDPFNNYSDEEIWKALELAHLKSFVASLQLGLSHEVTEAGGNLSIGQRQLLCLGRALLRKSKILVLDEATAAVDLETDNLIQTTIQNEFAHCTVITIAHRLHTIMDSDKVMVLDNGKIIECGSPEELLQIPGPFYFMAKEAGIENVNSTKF

As for `N[C@@H](CCC(=O)N[C@H](CSc1cc(=O)n2c(=O)ccn12)C(=O)NCC(=O)O)C(=O)O`, the Activity entry in series [1] and in series [2] was “substrate [+]” throughout.
Turning to `N[C@@H](CCC(=O)N[C@H](CSCc1ccc(-c2c3ccc(=O)cc-3oc3cc(O)ccc23)c(C(=O)O)c1)C(=O)NCC(=O)O)C(=O)O` [Glutathione-methylfluorescein], the Activity result in series [1] and in series [2] was “substrate [+]” in each case.
